IC50 data for four compounds are collected here from ChEMBL document CHEMBL4825727, “Cytotoxic oxidovanadium(IV) complexes of tridentate halogen-substituted Schiff bases: First dinuclear V(IV) complexes with O → VIV = O → VIV = O core” (Bioorg Med Chem Lett, 2021).

What all share (type): functional, cell-based
One test deals with A2780. Description: Cytotoxicity against human A2780 cells assessed as reduction in cell viability measured after 48 hrs by MTT assay. To be noted: A2780, 48 h.
The next test deals with MCF7. Description: Cytotoxicity against human MCF7 cells assessed as reduction in cell viability measured after 48 hrs by MTT assay. The conditions noted are these: MCF7, 48 h.
In the next test the test system is PC-3. Briefly: Cytotoxicity against human PC-3 cells assessed as reduction in cell viability measured after 48 hrs by MTT assay. The conditions noted are these: PC-3, 48 h.

Bounds are passed on as bounds.

Consider `Oc1ccc(Cl)cc1/C=N/CCc1ccccn1`, for which the IC50 with A2780 worked out at 51 µM; in the test with MCF7, 45 µM; in the test with PC-3 it was 110 µM.
For `Oc1ccc(Br)cc1/C=N/CCc1ccccn1`, the 50% inhibitory concentration (IC50) was determined as 50 µM in the test with A2780, 42 µM in the test on MCF7 and 108 µM in the test on PC-3.
On the same counts, the results for `Oc1c(Br)cc(Cl)cc1/C=N/CCc1ccccn1` are 48 µM, 48 µM and 83 µM.
On the same counts, the results for `Oc1ccccc1/C=N/CCc1ccccn1` are > 100 µM, > 100 µM and > 100 µM.
